Literature values, collected in patent publication US4801444A, “Medicinal preparation for individual prevention of venereal diseases and treatment of urogenital trichomoniasis” (Poltavsky Meditsinsky Stomatologichesky Institut, priority 1988, dated 1989).
Like-named read-outs stand apart in the source and are kept apart here.

How the values were obtained:
[1] = tested on: urogenital trichomoniasis
venereal diseases [2] = conditions: 0.05-0.1 percent solution
[3] = 0.05-0.1 percent solution, clinical application
venereal diseases [4] = conditions: 0.05-0.1 percent solution; remark: listed apart in the source
trichomonads = conditions: imidazole medicines, clinical use

Structure (SMILES): O=S(=O)([O-])[O-].[Cu+2] [copper sulphate]
- efficacy in topical treatment of urogenital trichomoniasis ([1]; topical (external)): insufficiently efficacious

Structure (SMILES): O=[N+]([O-])[O-].[Ag+] [lapis]
- efficacy in topical treatment of urogenital trichomoniasis ([1]; topical (external)): insufficiently efficacious

Structure (SMILES): CC(=O)Nc1cc([As](=O)(O)O)ccc1O [Acetarsol]
- efficacy in topical treatment of urogenital trichomoniasis ([1]; topical (external)): insufficiently efficacious

Structure (SMILES): [H]/N=C(\N/C(=N/[H])NCCCCCCNC(=N)NC(=N)Nc1ccc(Cl)cc1)Nc1ccc(Cl)cc1 [Chlorhexidine]
- bactericidal activity in tests on animals (venereal diseases [2]): adequate bactericidal activity
- effect upon skin and genital mucosa in man [3]: irritating and withering effect upon the skin and genital mucosa
- bactericidal activity in vitro (venereal diseases [4]): adequate bactericidal activity

Structure (SMILES): O=S(=O)([O-])[O-].[Zn+2] [zinc sulphate]
- efficacy in topical treatment of urogenital trichomoniasis ([1]; topical (external)): insufficiently efficacious

Structure (SMILES): OB(O)O [boric acid]
- efficacy in topical treatment of urogenital trichomoniasis ([1]; in vivo): insufficiently efficacious

Structure (SMILES): CCS(=O)(=O)CCn1c([N+](=O)[O-])cnc1C [Tinidazole]
- relapsing of a specific process (trichomonads): up to 8.4% of all cases

Structure (SMILES): O=C(N[C@H](CO)[C@H](O)c1ccc([N+](=O)[O-])cc1)C(Cl)Cl [laevomycetin]
- efficacy in topical treatment of urogenital trichomoniasis ([1]; topical (external)): insufficiently efficacious

Structure (SMILES): Cc1ncc([N+](=O)[O-])n1CCO [Metronidazole]
- relapsing of a specific process (trichomonads): up to 8.4% of all cases
